Assay results reported in patent publication US4401604A, “Process for preparing thiosulfenamide derivatives of N-phosphonomethylglycine triesters” (Monsanto Company, priority 1981, dated 1983).

Experiments:
Assay in all cases: Post-emergence herbicidal activity, greenhouse
Type in all cases: in vivo
Canada Thistle = conditions: Table I, 4 WAT
Summary of the method: (§1)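 2–3-week-old plants, post-emergence atomizer spray, ~0.4% emulsifier; candidate from 1.0% stock in acetone, THF or water. Greenhouse hold; injury vs control at ~2/4 WAT.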

Barnyardgrass = test system: Barnyardgrass
Summary of the method: as §1

Downy Brome = test system: Downy Brome
Summary of the method: as §1

Lambsquarters = test system: Lambsquarters
Summary of the method: as §1

Soybean = conditions: Table II
Summary of the method: as §1

Crabgrass = conditions: Table II
Summary of the method: as §1

Rice = conditions: Table II
Summary of the method: as §1

Hemp Sesbania = conditions: Table II
Summary of the method: as §1

Yellow Nutsedge = conditions: Table I, 4 WAT
Summary of the method: as §1

Johnsongrass = conditions: Table I, 4 WAT
Summary of the method: as §1

Wheat = conditions: Table II
Summary of the method: as §1

Quackgrass = conditions: Table I, 4 WAT
Summary of the method: as §1

Smartweed = test system: Smartweed
Summary of the method: as §1

Cocklebur = test system: Cocklebur
Summary of the method: as §1

Morningglory = test system: Morningglory
Summary of the method: as §1

Velvetleaf = test system: Velvetleaf
Summary of the method: as §1

Sugar Beet = conditions: Table II
Summary of the method: as §1

Wild Buckwheat = conditions: Table II
Summary of the method: as §1

Sorghum = conditions: Table II
Summary of the method: as §1

Panicum Spp = conditions: Table II
Summary of the method: as §1

With `COC(=O)CN(CP(=O)(Oc1ccccc1)Oc1ccccc1)SSC(C)C` [I, Glycine, N-[(diphenoxyphosphinyl)methyl]-N-[(1-methylethyl)dithio]-, methyl ester] the “post-emergence herbicidal activity index” value (Canada Thistle; 5.6 kg/h) was 2 (50-74% control), the “post-emergence herbicidal activity index” value (Canada Thistle; 11.2 kg/h) was 3 (75-99% control) and the “post-emergence herbicidal activity index” value (Barnyardgrass; Table I, 5.6 kg/h, 4 WAT) was 4 (100% control). For the same molecule, the “post-emergence herbicidal activity index” value (Barnyardgrass; Table I, 11.2 kg/h, 4 WAT) was 4 (100% control), the “post-emergence herbicidal activity index” value (Barnyardgrass; Table II, 0.056 kg/h, 2 WAT) was 0 (0- 24% control) and the “post-emergence herbicidal activity index” value (Barnyardgrass; Table II, 0.28 kg/h, 2 WAT) was 1 (25-49% control). The “post-emergence herbicidal activity index” value (Barnyardgrass; Table II, 1.12 kg/h, 4 WAT) was 2 (50-74% control), the “post-emergence herbicidal activity index” value (Barnyardgrass; Table II, 5.6 kg/h, 4 WAT) was 4 (100% control) and the “post-emergence herbicidal activity index” value (Barnyardgrass; Table II, 11.2 kg/h, 4 WAT) was 3 (75-99% control). The “post-emergence herbicidal activity index” value (Downy Brome; Table I, 5.6 kg/h, 4 WAT) was 3 (75-99% control), the “post-emergence herbicidal activity index” value (Downy Brome; Table I, 11.2 kg/h, 4 WAT) was 3 (75-99% control) and the “post-emergence herbicidal activity index” value (Downy Brome; Table II, 0.056 kg/h, 2 WAT) was 0 (0- 24% control). The “post-emergence herbicidal activity index” value (Downy Brome; Table II, 0.28 kg/h, 2 WAT) was 0 (0- 24% control), the “post-emergence herbicidal activity index” value (Downy Brome; Table II, 1.12 kg/h, 4 WAT) was 1 (25-49% control) and the “post-emergence herbicidal activity index” value (Downy Brome; Table II, 5.6 kg/h, 4 WAT) was 2 (50-74% control). The “post-emergence herbicidal activity index” value (Downy Brome; Table II, 11.2 kg/h, 4 WAT) was 2 (50-74% control), the “post-emergence herbicidal activity index” value (Lambsquarters; Table I, 5.6 kg/h, 4 WAT) was 3 (75-99% control) and the “post-emergence herbicidal activity index” value (Lambsquarters; Table I, 11.2 kg/h, 4 WAT) was 4 (100% control). For the same molecule, the “post-emergence herbicidal activity index” value (Lambsquarters; Table II, 0.056 kg/h, 2 WAT) was 0 (0- 24% control), the “post-emergence herbicidal activity index” value (Lambsquarters; Table II, 0.28 kg/h, 2 WAT) was 0 (0- 24% control) and the “post-emergence herbicidal activity index” value (Lambsquarters; Table II, 1.12 kg/h, 4 WAT) was 3 (75-99% control). The “post-emergence herbicidal activity index” value (Lambsquarters; Table II, 5.6 kg/h, 4 WAT) was 4 (100% control), the “post-emergence herbicidal activity index” value (Lambsquarters; Table II, 11.2 kg/h, 4 WAT) was 3 (75-99% control) and the “post-emergence herbicidal activity index” value (Soybean; 0.056 kg/h, 2 WAT) was 0 (0- 24% control). For the same molecule, the “post-emergence herbicidal activity index” value (Soybean; 0.28 kg/h, 2 WAT) was 0 (0- 24% control), the “post-emergence herbicidal activity index” value (Soybean; 1.12 kg/h, 4 WAT) was 1 (25-49% control) and the “post-emergence herbicidal activity index” value (Soybean; 5.6 kg/h, 4 WAT) was 3 (75-99% control). For the same molecule, the “post-emergence herbicidal activity index” value (Soybean; 11.2 kg/h, 4 WAT) was 0 (0- 24% control), the “post-emergence herbicidal activity index” value (Crabgrass; 0.056 kg/h, 2 WAT) was 0 (0- 24% control) and the “post-emergence herbicidal activity index” value (Crabgrass; 0.28 kg/h, 2 WAT) was 0 (0- 24% control). The “post-emergence herbicidal activity index” value (Crabgrass; 1.12 kg/h, 4 WAT) was 3 (75-99% control), the “post-emergence herbicidal activity index” value (Crabgrass; 5.6 kg/h, 4 WAT) was 4 (100% control) and the “post-emergence herbicidal activity index” value (Crabgrass; 11.2 kg/h, 4 WAT) was 3 (75-99% control). For the same molecule, the “post-emergence herbicidal activity index” value (Rice; 0.056 kg/h, 2 WAT) was 0 (0- 24% control), the “post-emergence herbicidal activity index” value (Rice; 0.28 kg/h, 2 WAT) was 0 (0- 24% control) and the “post-emergence herbicidal activity index” value (Rice; 1.12 kg/h, 4 WAT) was 0 (0- 24% control). The “post-emergence herbicidal activity index” value (Rice; 5.6 kg/h, 4 WAT) was 3 (75-99% control), the “post-emergence herbicidal activity index” value (Rice; 11.2 kg/h, 4 WAT) was 3 (75-99% control) and the “post-emergence herbicidal activity index” value (Hemp Sesbania; 0.056 kg/h, 2 WAT) was 0 (0- 24% control). For the same molecule, the “post-emergence herbicidal activity index” value (Hemp Sesbania; 0.28 kg/h, 2 WAT) was 0 (0- 24% control), the “post-emergence herbicidal activity index” value (Hemp Sesbania; 1.12 kg/h, 4 WAT) was 1 (25-49% control) and the “post-emergence herbicidal activity index” value (Hemp Sesbania; 5.6 kg/h, 4 WAT) was 4 (100% control). For the same molecule, the “post-emergence herbicidal activity index” value (Hemp Sesbania; 11.2 kg/h, 4 WAT) was 0 (0- 24% control), the “post-emergence herbicidal activity index” value (Yellow Nutsedge; 5.6 kg/h) was 3 (75-99% control) and the “post-emergence herbicidal activity index” value (Yellow Nutsedge; 11.2 kg/h) was 3 (75-99% control). For the same molecule, the “post-emergence herbicidal activity index” value (Johnsongrass; 5.6 kg/h) was 3 (75-99% control), the “post-emergence herbicidal activity index” value (Johnsongrass; 11.2 kg/h) was 4 (100% control) and the “post-emergence herbicidal activity index” value (Wheat; 0.056 kg/h, 2 WAT) was 0 (0- 24% control). The “post-emergence herbicidal activity index” value (Wheat; 0.28 kg/h, 2 WAT) was 0 (0- 24% control), the “post-emergence herbicidal activity index” value (Wheat; 1.12 kg/h, 4 WAT) was 1 (25-49% control) and the “post-emergence herbicidal activity index” value (Wheat; 5.6 kg/h, 4 WAT) was 3 (75-99% control). The “post-emergence herbicidal activity index” value (Wheat; 11.2 kg/h, 4 WAT) was 0 (0- 24% control), the “post-emergence herbicidal activity index” value (Quackgrass; 5.6 kg/h) was 4 (100% control) and the “post-emergence herbicidal activity index” value (Quackgrass; 11.2 kg/h) was 3 (75-99% control). The “post-emergence herbicidal activity index” value (Smartweed; Table I, 5.6 kg/h, 4 WAT) was 4 (100% control), the “post-emergence herbicidal activity index” value (Smartweed; Table I, 11.2 kg/h, 4 WAT) was 4 (100% control) and the “post-emergence herbicidal activity index” value (Smartweed; Table II, 0.056 kg/h, 2 WAT) was 0 (0- 24% control). The “post-emergence herbicidal activity index” value (Smartweed; Table II, 0.28 kg/h, 2 WAT) was 0 (0- 24% control), the “post-emergence herbicidal activity index” value (Smartweed; Table II, 1.12 kg/h, 4 WAT) was 3 (75-99% control) and the “post-emergence herbicidal activity index” value (Smartweed; Table II, 5.6 kg/h, 4 WAT) was 4 (100% control). For the same molecule, the “post-emergence herbicidal activity index” value (Smartweed; Table II, 11.2 kg/h, 4 WAT) was 3 (75-99% control), the “post-emergence herbicidal activity index” value (Cocklebur; Table I, 5.6 kg/h, 4 WAT) was 4 (100% control) and the “post-emergence herbicidal activity index” value (Cocklebur; Table I, 11.2 kg/h, 4 WAT) was 4 (100% control). The “post-emergence herbicidal activity index” value (Cocklebur; Table II, 0.056 kg/h, 2 WAT) was 0 (0- 24% control), the “post-emergence herbicidal activity index” value (Cocklebur; Table II, 0.28 kg/h, 2 WAT) was 0 (0- 24% control) and the “post-emergence herbicidal activity index” value (Cocklebur; Table II, 1.12 kg/h, 4 WAT) was 2 (50-74% control). For the same molecule, the “post-emergence herbicidal activity index” value (Cocklebur; Table II, 5.6 kg/h, 4 WAT) was 3 (75-99% control), the “post-emergence herbicidal activity index” value (Cocklebur; Table II, 11.2 kg/h, 4 WAT) was 0 (0- 24% control) and the “post-emergence herbicidal activity index” value (Morningglory; Table I, 5.6 kg/h, 4 WAT) was 4 (100% control). The “post-emergence herbicidal activity index” value (Morningglory; Table I, 11.2 kg/h, 4 WAT) was 3 (75-99% control), the “post-emergence herbicidal activity index” value (Morningglory; Table II, 0.056 kg/h, 2 WAT) was 0 (0- 24% control) and the “post-emergence herbicidal activity index” value (Morningglory; Table II, 0.28 kg/h, 2 WAT) was 0 (0- 24% control). For the same molecule, the “post-emergence herbicidal activity index” value (Morningglory; Table II, 1.12 kg/h, 4 WAT) was 2 (50-74% control), the “post-emergence herbicidal activity index” value (Morningglory; Table II, 5.6 kg/h, 4 WAT) was 3 (75-99% control) and the “post-emergence herbicidal activity index” value (Morningglory; Table II, 11.2 kg/h, 4 WAT) was 1 (25-49% control). The “post-emergence herbicidal activity index” value (Velvetleaf; Table I, 5.6 kg/h, 4 WAT) was 3 (75-99% control), the “post-emergence herbicidal activity index” value (Velvetleaf; Table I, 11.2 kg/h, 4 WAT) was 4 (100% control) and the “post-emergence herbicidal activity index” value (Velvetleaf; Table II, 0.056 kg/h, 2 WAT) was 0 (0- 24% control). For the same molecule, the “post-emergence herbicidal activity index” value (Velvetleaf; Table II, 0.28 kg/h, 2 WAT) was 1 (25-49% control), the “post-emergence herbicidal activity index” value (Velvetleaf; Table II, 1.12 kg/h, 4 WAT) was 2 (50-74% control) and the “post-emergence herbicidal activity index” value (Velvetleaf; Table II, 5.6 kg/h, 4 WAT) was 4 (100% control). For the same molecule, the “post-emergence herbicidal activity index” value (Velvetleaf; Table II, 11.2 kg/h, 4 WAT) was 1 (25-49% control), the “post-emergence herbicidal activity index” value (Sugar Beet; 0.056 kg/h, 2 WAT) was 0 (0- 24% control) and the “post-emergence herbicidal activity index” value (Sugar Beet; 0.28 kg/h, 2 WAT) was 0 (0- 24% control). The “post-emergence herbicidal activity index” value (Sugar Beet; 1.12 kg/h, 4 WAT) was 2 (50-74% control), the “post-emergence herbicidal activity index” value (Sugar Beet; 5.6 kg/h, 4 WAT) was 4 (100% control) and the “post-emergence herbicidal activity index” value (Sugar Beet; 11.2 kg/h, 4 WAT) was 3 (75-99% control). The “post-emergence herbicidal activity index” value (Wild Buckwheat; 0.056 kg/h, 2 WAT) was 0 (0- 24% control), the “post-emergence herbicidal activity index” value (Wild Buckwheat; 0.28 kg/h, 2 WAT) was 0 (0- 24% control) and the “post-emergence herbicidal activity index” value (Wild Buckwheat; 1.12 kg/h, 4 WAT) was 2 (50-74% control). For the same molecule, the “post-emergence herbicidal activity index” value (Wild Buckwheat; 5.6 kg/h, 4 WAT) was 3 (75-99% control), the “post-emergence herbicidal activity index” value (Wild Buckwheat; 11.2 kg/h, 4 WAT) was 0 (0- 24% control) and the “post-emergence herbicidal activity index” value (Sorghum; 0.056 kg/h, 2 WAT) was 0 (0- 24% control). The “post-emergence herbicidal activity index” value (Sorghum; 0.28 kg/h, 2 WAT) was 0 (0- 24% control), the “post-emergence herbicidal activity index” value (Sorghum; 1.12 kg/h, 4 WAT) was 1 (25-49% control) and the “post-emergence herbicidal activity index” value (Sorghum; 5.6 kg/h, 4 WAT) was 3 (75-99% control). For the same molecule, the “post-emergence herbicidal activity index” value (Sorghum; 11.2 kg/h, 4 WAT) was 2 (50-74% control), the “post-emergence herbicidal activity index” value (Panicum Spp; 0.056 kg/h, 2 WAT) was 0 (0- 24% control) and the “post-emergence herbicidal activity index” value (Panicum Spp; 0.28 kg/h, 2 WAT) was 1 (25-49% control). The “post-emergence herbicidal activity index” value (Panicum Spp; 1.12 kg/h, 4 WAT) was 1 (25-49% control), the “post-emergence herbicidal activity index” value (Panicum Spp; 5.6 kg/h, 4 WAT) was 3 (75-99% control) and the “post-emergence herbicidal activity index” value (Panicum Spp; 11.2 kg/h, 4 WAT) was 3 (75-99% control).
